1 compound from ChEMBL document CHEMBL5728931, “Inhibitors of phosphoglycerate dehydrogenase (PHGDH) and uses thereof” (2022) can be followed below.

In the experiment the target is T1, D-3-phosphoglycerate dehydrogenase (Homo sapiens, UniProt O43175).
T1 sequence (O43175 whole entry): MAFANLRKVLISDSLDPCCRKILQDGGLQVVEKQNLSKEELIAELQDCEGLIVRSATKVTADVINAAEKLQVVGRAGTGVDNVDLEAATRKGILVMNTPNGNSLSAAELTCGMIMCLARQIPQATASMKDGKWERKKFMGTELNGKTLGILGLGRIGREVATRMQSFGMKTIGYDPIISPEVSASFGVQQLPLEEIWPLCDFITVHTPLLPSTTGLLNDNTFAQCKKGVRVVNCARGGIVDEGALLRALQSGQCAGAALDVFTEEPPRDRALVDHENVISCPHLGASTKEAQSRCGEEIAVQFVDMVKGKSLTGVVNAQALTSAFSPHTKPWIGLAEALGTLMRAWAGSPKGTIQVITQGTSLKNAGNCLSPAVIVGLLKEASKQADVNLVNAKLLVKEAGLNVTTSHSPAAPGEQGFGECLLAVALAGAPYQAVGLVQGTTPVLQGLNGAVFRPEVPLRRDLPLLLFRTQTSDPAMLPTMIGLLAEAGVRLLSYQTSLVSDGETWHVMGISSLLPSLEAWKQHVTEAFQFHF
Nature of the experiment: Enzyme Assay: PHGDH assay buffer contained 50 mM TEA pH 8.0, 10 mM MgCl2, 0.05% BSA, and 0.01% Tween-20. PHGDH enzyme buffer consisted of assay buffer with 20 nM PHGDH and 0.2 mg/mL diaphorase. PHGDH substrate buffer contained 0.3 mM NAD 1.25 mM glutamate, 0.1 mM 3-phosphoglycerate, 0.2 mM resazurin, 1 μM PSAT1, and 1 μM PSPH. qHTS was performed in 1536-well plates dispensed with a BioRAPTR FRD. Each well contained equal volumes of substrate buffer […]. Plates were read at 0 minutes and 20 minutes at room temperature with a ViewLux uHTS Microplate Imager (PerkinElmer). Follow-up assays were performed in black 384-well plates (Greiner) in 20 μL of enzyme buffer to which compounds were added in dose-response with an HP D300 digital dispenser (Hewlett-Packard), followed by addition of 20 μL of substrate buffer. Plates were incubated at room temperature (25° C.) and read at 0 and 20 minutes with a Spectramax M5 plate reader (Molecular Devices) in fluorescence intensity mode with a λex=550 nm and λem=600 nm (emission cutoff=590 nm). (Alamar Blue is a resazurin reagent that responds to reducing activity.)

What is called IC50 is the concentration that inhibits the measured activity by half. A low value points to greater potency in that assay.

For `Cc1cc(C)nc(NC(=S)N2CCN(c3cncnc3)CC2)c1`, the IC50 was greater than 20 µM.
